Data taken from ChEMBL document CHEMBL1201862, “PubChem BioAssay data set” (2004).
“And” between values parts separate entries of the source, which are not always exact repeats. Equal entries are not always repeated.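 Five concentrations, 48 hours, 96-well plates. GI50 marks 50% less growth.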 The source made the active and inactive calls. No stated cut-off is given here; in the data, active = GI50 up to about 1.1 µM and inactive = higher.

Columns and labels:
Assay in all cases: NCI-60 cell line screen, 48 h
786-0 = test system: 786-0
A498 = test system: A498
A549 = test system: A549
CCRF-CEM = test system: CCRF-CEM
HCT-116 = test system: HCT-116
HCT-15 = test system: HCT-15
HOP-62 = test system: HOP-62
LOX IMVI = test system: LOX IMVI
NCI-H522 = test system: NCI-H522
OVCAR-3 = test system: OVCAR-3
OVCAR-8 = test system: OVCAR-8
SF-295 = test system: SF-295
SN12C = test system: SN12C
SR = test system: SR
U-251 = test system: U-251
UACC-62 = test system: UACC-62
CAKI-1 = test system: CAKI-1
SK-OV-3 = test system: SK-OV-3

Structure (SMILES) | GI50 (786-0) | GI50 (A498) | GI50 (A549) | GI50 (CCRF-CEM) | GI50 (HCT-116) | GI50 (HCT-15) [µM] | GI50 (HOP-62) | GI50 (LOX IMVI) | GI50 (NCI-H522) | GI50 (OVCAR-3) | GI50 (OVCAR-8) | GI50 (SF-295) | GI50 (SN12C) | GI50 (SR) | GI50 (U-251) | GI50 (UACC-62) | GI50 (CAKI-1) | GI50 (SK-OV-3)
CC1=C(C(=O)NCc2ccccc2)C(c2ccc(Cl)c(Cl)c2)C(C(=O)NCc2ccccc2)=C(C)N1 | > 100 µM (inactive) | > 100 µM (inactive) | > 100 µM (inactive) | > 100 µM (inactive) | > 100 µM (inactive) | > 100 | > 100 µM (inactive) | > 100 µM (inactive) | > 100 µM (inactive) | > 100 µM (inactive) | > 100 µM (inactive) | > 100 µM (inactive) | > 100 µM (inactive) | > 100 µM (inactive) | > 100 µM (inactive) | > 100 µM (inactive) |  | 
Cc1cccc(C)c1NC(=O)CCC(=O)/N=C(\N)NC#N | > 100 µM (inactive) | > 100 µM (inactive) | > 100 µM (inactive) | > 100 µM (inactive) | > 100 µM (inactive) | > 100 | > 100 µM (inactive) | > 100 µM (inactive) | > 100 µM (inactive) | > 100 µM (inactive) | > 100 µM (inactive) | > 100 µM (inactive) | > 100 µM (inactive) | > 100 µM (inactive) | > 100 µM (inactive) | > 100 µM (inactive) | > 100 µM (inactive) | > 100 µM (inactive)
CN1C(=O)C(=CN(C)c2ccccc2)C(=O)N(C)C1=O | > 100 µM (inactive) | 95.7 µM (inactive) | > 100 µM (inactive) | 40.4 µM (inactive) | > 100 µM (inactive) | > 100 |  | > 100 µM (inactive) |  | 90.4 µM (inactive) | > 100 µM (inactive) | > 100 µM (inactive) | > 100 µM (inactive) | 37.2 µM (inactive) | > 100 µM (inactive) | 91.6 µM (inactive) | 30.1 µM (inactive) | 
CC1CCCC(C(O)CC2CC(=O)N(c3ccccc3)C(=O)C2)C1=O (stereo unspecified) | > 100 µM (inactive) | > 100 µM (inactive) | > 100 µM (inactive) | > 100 µM (inactive) | > 100 µM (inactive) |  | > 100 µM (inactive) | > 100 µM (inactive) | > 100 µM (inactive) | > 100 µM (inactive) | > 100 µM (inactive) | > 100 µM (inactive) | > 100 µM (inactive) | > 100 µM (inactive) | > 100 µM (inactive) | > 100 µM (inactive) | > 100 µM (inactive) | > 100 µM (inactive)
C\C=C/C=C/C=C/C(=O)O | > 100 µM (inactive) | > 100 µM (inactive) | > 100 µM (inactive) | > 100 µM (inactive) | > 100 µM (inactive) | > 100 | > 100 µM (inactive) | > 100 µM (inactive) | > 100 µM (inactive) | > 100 µM (inactive) | > 100 µM (inactive) | > 100 µM (inactive) | > 100 µM (inactive) |  | > 100 µM (inactive) | > 100 µM (inactive) | > 100 µM (inactive) | > 100 µM (inactive)
COc1c(O)c2c3c(c(C)cc(O)c3c1O)C(=O)C(O)(C(C)(C)C(C)=O)C2=O (stereo unspecified) | > 100 µM (inactive) |  | > 100 µM (inactive) | 61.9 µM (inactive) and 57 µM (inactive) | > 100 µM (inactive) | > 100 | > 100 µM (inactive) |  |  | > 100 µM (inactive) | > 100 µM (inactive) |  | > 100 µM (inactive) and 82.4 µM (inactive) |  | > 100 µM (inactive) |  | > 100 µM (inactive) | > 100 µM (inactive)
CC1=C(CC2C(=O)N(c3ccccc3)S(=O)(=O)NC2C)C(=O)N(c2ccccc2)S(=O)(=O)N1C (stereo unspecified) | > 100 µM (inactive) |  | > 100 µM (inactive) | > 100 µM (inactive) | > 100 µM (inactive) | > 100 | > 100 µM (inactive) | > 100 µM (inactive) | > 100 µM (inactive) | > 100 µM (inactive) | > 100 µM (inactive) | > 100 µM (inactive) | > 100 µM (inactive) | > 100 µM (inactive) | > 10 µM (inactive) | > 100 µM (inactive) | > 100 µM (inactive) | > 100 µM (inactive)
CCOc1ccccc1NC(=O)C1=C(C)NC(C)=C(C(=O)Nc2ccccc2OCC)C1c1cccc([N+](=O)[O-])c1 | 57.9 µM (inactive) | 51.2 µM (inactive) | 31.6 µM (inactive) | 37.9 µM (inactive) |  |  | 39.3 µM (inactive) | 66.8 µM (inactive) | 22.4 µM (inactive) | 80.9 µM (inactive) | 86.5 µM (inactive) | > 100 µM (inactive) | > 100 µM (inactive) |  | > 100 µM (inactive) |  | 5.9 µM (inactive) | > 100 µM (inactive)
CC(=O)CC(=O)N(CCN(C(=O)CC(C)=O)c1ccccc1)c1ccccc1 | > 100 µM (inactive) | > 100 µM (inactive) | > 100 µM (inactive) | 58.2 µM (inactive) | > 100 µM (inactive) |  | > 100 µM (inactive) | > 100 µM (inactive) | 84.7 µM (inactive) | > 100 µM (inactive) | > 100 µM (inactive) | > 100 µM (inactive) | > 100 µM (inactive) |  | > 100 µM (inactive) | > 100 µM (inactive) | > 100 µM (inactive) | > 100 µM (inactive)
CC1(O)CC2C(CC1SC1CC3C(CC1(C)O)C3(C)C)C2(C)C (stereo unspecified) | 43.6 µM (inactive) |  | 50.8 µM (inactive) | 27 µM (inactive) | 44.8 µM (inactive) | 39.1 |  |  |  | 38.8 µM (inactive) | 41.9 µM (inactive) | 46 µM (inactive) | 36.1 µM (inactive) |  | 41.6 µM (inactive) |  |  | 54.7 µM (inactive)
COc1cc2c(cc1OC)C1c3ccccc3C(C#N)(C2)N(C(=O)c2ccccc2)C1O (stereo unspecified) | > 100 µM (inactive) |  |  | 52.1 µM (inactive) | > 100 µM (inactive) | 55.8 | 25.7 µM (inactive) | > 100 µM (inactive) | 21.3 µM (inactive) | 52.1 µM (inactive) | 54.2 µM (inactive) | > 100 µM (inactive) | > 100 µM (inactive) | 79.8 µM (inactive) | 56.5 µM (inactive) | 43.7 µM (inactive) |  | 77.3 µM (inactive)
CC(C)N(C(=O)C12C3C4C1C1C2C3C41I)C(C)C (stereo unspecified) | > 100 µM (inactive) | > 100 µM (inactive) | > 100 µM (inactive) | > 100 µM (inactive) | > 100 µM (inactive) |  |  |  | > 100 µM (inactive) | > 100 µM (inactive) | > 100 µM (inactive) | > 100 µM (inactive) | > 100 µM (inactive) | > 100 µM (inactive) |  | > 100 µM (inactive) | > 100 µM (inactive) | > 100 µM (inactive)
COC(=O)C1=C(O)c2cc3c(cc2[C@H](c2cc(OC)c(OC)c(OC)c2)C1)OCO3 | 58.5 µM (inactive) | 22.5 µM (inactive) | 57.5 µM (inactive) | 38.1 µM (inactive) | 55.3 µM (inactive) | 25.2 | > 100 µM (inactive) | 30.5 µM (inactive) |  | 19 µM (inactive) | 51.3 µM (inactive) | 37.5 µM (inactive) | 54.1 µM (inactive) | 30.8 µM (inactive) | 44.5 µM (inactive) | 5.74 µM (inactive) | 34.8 µM (inactive) | > 100 µM (inactive)
COc1ccc(C2ON(c3cccc(C)n3)CC=C2C)cc1 (stereo unspecified) | 44.7 µM (inactive) |  | 40.7 µM (inactive) | 42.9 µM (inactive) |  | 26.9 | 65.3 µM (inactive) | 41.5 µM (inactive) | 19.2 µM (inactive) | > 100 µM (inactive) | > 100 µM (inactive) | 59.8 µM (inactive) | 70.6 µM (inactive) | 30.1 µM (inactive) | 32.4 µM (inactive) | 40.7 µM (inactive) | 74.1 µM (inactive) | 97.9 µM (inactive)
CC1(Cl)CC(C)(/C=C/Cl)C(Cl)CC1Cl (stereo unspecified) | 15.4 µM (inactive) | 19.2 µM (inactive) | 14 µM (inactive) | 19.1 µM (inactive) | 10.1 µM (inactive) | 14.1 | 19.9 µM (inactive) |  | 16.7 µM (inactive) | 14.5 µM (inactive) | 16.8 µM (inactive) | 15.2 µM (inactive) | 17.3 µM (inactive) | 18.2 µM (inactive) | 16.9 µM (inactive) | 16.1 µM (inactive) | 16.1 µM (inactive) | 38.4 µM (inactive)
CC1=CCCC2C(C=O)(C1)CC(C)C2(CO)CC/C(=C/CO)CO (stereo unspecified) | > 100 µM (inactive) | > 100 µM (inactive) | > 100 µM (inactive) | 71.9 µM (inactive) | 69.5 µM (inactive) | > 100 |  | > 100 µM (inactive) | 38.4 µM (inactive) | > 100 µM (inactive) | > 100 µM (inactive) | > 100 µM (inactive) | > 100 µM (inactive) |  | > 100 µM (inactive) | > 100 µM (inactive) | 57.3 µM (inactive) | > 100 µM (inactive)
N#C/C(=C\c1cc(Br)c(O)c(Br)c1)c1ccccn1 | 49.5 µM (inactive) |  | 59.6 µM (inactive) | 34.1 µM (inactive) | > 100 µM (inactive) | 41.2 | 53.2 µM (inactive) |  | 64.9 µM (inactive) | 49.3 µM (inactive) | 94.8 µM (inactive) | 16 µM (inactive) | 46.7 µM (inactive) | > 100 µM (inactive) | 22.9 µM (inactive) | 37.1 µM (inactive) | > 100 µM (inactive) | 32.5 µM (inactive)
Cc1c(C(=O)/C=C/c2ccccc2)[n+]([O-])c2ccccc2[n+]1[O-] | 17.2 µM (inactive) | 15.8 µM (inactive) | 18.4 µM (inactive) | 22.2 µM (inactive) | 15.8 µM (inactive) |  | 18.1 µM (inactive) | 14.5 µM (inactive) | 6.62 µM (inactive) | 15.1 µM (inactive) | 15 µM (inactive) | 16.4 µM (inactive) | 13.8 µM (inactive) | 23.2 µM (inactive) | 15.3 µM (inactive) | 15.1 µM (inactive) | 17.5 µM (inactive) | 20.1 µM (inactive)
